18 compounds from ChEMBL document CHEMBL1136334, “Synthesis and biological evaluation of 4-[(3-methyl-3H-imidazol-4-yl)-(2-phenylethynyl-benzyloxy)-methyl]-benzonitrile as novel farnesyltransferase inhibitor” (Bioorg Med Chem Lett, 2003) can be followed below.

Broadly, the pIC50 is −log10 of the IC50, conventionally taken in molar units. For orientation: pEC50 means the EC50 on a negative log10 scale, so that one unit is a factor of ten.

Assay [1] addresses Protein farnesyl/geranylgeranyl transferase (Homo sapiens) (UniProt P49354+P49356+P53609). Description: Selectivity ratio of IC50 Geranylgeranyl transferase to that of IC50 Farnesyltransferase. The class given is protein-complex assay.
Assay [2] concerns the target Geranylgeranyl transferase type I (Homo sapiens, UniProt P49354+P53609). Description: In vitro inhibition of the human Geranylgeranyl transferase-catalyzed incorporation of [3H]GGPP into biotinylated peptide corresponding to the C-terminal of human K-Ras. The class given is protein-complex assay.
For assay [3], the target named is Protein farnesyltransferase (Homo sapiens, UniProt P49354+P49356). Description: In vitro inhibition of the human FTase-catalyzed incorporation of [3H]FPP into recombinant Ras CVIM. The class given is protein-complex assay.
Another assay relates to NIH3T3. Description: In vitro reduction of farnesylation in NIH-3T3H-ras cell line. To be noted: Mus musculus. The class given is functional, cell-based.

Structures are written as SMILES. pEC50, pIC50: −log10 of the molar value.

For `Cn1cncc1C(OCc1ccc(C#N)cc1C#Cc1cccc(O)c1)c1ccc(C#N)cc1` (centres undefined), in assay [1], the Selectivity worked out at 1300. The figures for the pIC50 in assay [2] and in assay [3] were 5.89 and 9.00, respectively. This compound also had a pEC50 with NIH3T3 of less than 10.00.

Turning to `Cn1cncc1C(OCc1ccc(C#N)cc1C#Cc1ccccc1)c1ccc(C#N)cc1` (centres undefined), the Selectivity in assay [1] was determined as 1900. Besides, the pIC50 was 5.74 in assay [2] and 9.02 in assay [3]. Besides, in the assay with NIH3T3, the negative logarithm of the EC50 (pEC50) was 10.00.

`Cn1cncc1C(OCc1ccc(C#N)cc1C#CCCCCO)c1ccc(C#N)cc1` (centres undefined): in assay [1], the Selectivity turned out to be 941. Further, the pIC50 in assay [2] was 5.80; in assay [3] it was 8.77. In the assay with NIH3T3, the pEC50 was 7.68.

Consider `Cn1cncc1C(OCc1ccc(C#N)cc1C#Cc1ccc([N+](=O)[O-])cc1)c1ccc(C#N)cc1` (centres undefined), for which the Selectivity in assay [1] was 273. For the same compound, the negative logarithm of the IC50 (pIC50) is 6.82 in assay [2] and 9.26 in assay [3]. For the same compound, the pEC50 in the assay with NIH3T3 was 7.44.

On to `Cn1cncc1C(OCc1ccc(C#N)cc1-c1ccc(-c2ccccc2)cc1)c1ccc(C#N)cc1` (centres undefined), for which the Selectivity in assay [1] was 136. For the same compound, the pIC50 in assay [2] is 6.82; in assay [3], 8.96. Moreover, the pEC50 in the assay on NIH3T3 is greater than 10.00.

As to `Cn1cncc1C(OCc1ccc(C#N)cc1-c1ccccc1)c1ccc(C#N)cc1` (centres undefined), the pEC50 in the assay with NIH3T3 is 6.85.

As to `CCC/C=C/C=C/c1cc(C#N)ccc1COC(c1ccc(C#N)cc1)c1cncn1C` (centres undefined), the Selectivity in assay [1] came out at 169. For the same compound, the pIC50 was 6.66 in assay [2] and 8.89 in assay [3]. The compound further showed a pEC50 with NIH3T3 of 7.78.

On to `Cn1cncc1C(OCc1ccc(C#N)cc1C#Cc1ccccn1)c1ccc(C#N)cc1` (centres undefined), for which the Selectivity in assay [1] is 5520. In addition, the negative logarithm of the IC50 (pIC50) in assay [2] is 4.80; in assay [3] it was 8.54. In the assay on NIH3T3, this compound gave a pEC50 of less than 10.00.

On to `Cn1cncc1C(OCc1ccc(C#N)cc1C#CCCc1ccccc1)c1ccc(C#N)cc1` (centres undefined), for which the Selectivity in assay [1] came out at 386. Also, the figures for the pIC50 in assay [2] and in assay [3] were 6.27 and 8.85, respectively. The compound also had a pEC50 in the assay with NIH3T3 of 6.89.

Turning to `Cn1cncc1C(OCc1ccc(C#N)cc1C#CC1(O)CCCCC1)c1ccc(C#N)cc1` (centres undefined), the Selectivity in assay [1] turned out to be 971. Also, the pIC50 in assay [2] is 6.07; in assay [3], 9.06. The compound further had a pEC50 in the assay on NIH3T3 of 8.71.

Take `Cn1cncc1C(OCc1ccc(C#N)cc1/C=C/c1ccc([N+](=O)[O-])cc1)c1ccc(C#N)cc1` (centres undefined): the Selectivity in assay [1] is 180. Moreover, the pIC50 in assay [2] is 6.96; in assay [3], 9.21. The pEC50 with NIH3T3 is 8.65.

On to `Cn1cncc1C(OCc1ccc(C#N)cc1C#CC(C)(C)C)c1ccc(C#N)cc1` (centres undefined), for which the Selectivity in assay [1] stood at 790. For the same compound, the pIC50 in assay [2] is 6.31; in assay [3], 9.21. Also, the pEC50 in the assay on NIH3T3 is 7.11.

As for `CCCCCCC#Cc1cc(C#N)ccc1COC(c1ccc(C#N)cc1)c1cncn1C` (centres undefined), the Selectivity in assay [1] worked out at 178. Further, the pIC50 in assay [2] was 6.80; in assay [3], 9.05. Further, the pEC50 with NIH3T3 was less than 10.00.

With `Cn1cncc1C(OCc1ccc(C#N)cc1-c1ccc(C#N)cc1)c1ccc(C#N)cc1` (centres undefined), in assay [1], the Selectivity was determined as 6900. In addition, the negative-log IC50 (pIC50) in assay [2] was 5.05; in assay [3], 8.89. This compound also gave a pEC50 with NIH3T3 greater than 10.00.

In the case of `Cn1cncc1C(OCc1ccc(C#N)cc1C#Cc1ccc(-c2ccccc2)cc1)c1ccc(C#N)cc1` (centres undefined), the Selectivity in assay [1] was greater than 1000. Further, the pIC50 in assay [2] is less than 5.00; in assay [3], 8.00. Besides, in the assay with NIH3T3, the pEC50 was less than 10.00.

For `Cn1cncc1C(OCc1ccc(C#N)cc1CCC(C)(C)C)c1ccc(C#N)cc1` (centres undefined), the Selectivity in assay [1] was found to be 326. Besides, the pIC50 in assay [2] is 6.51; in assay [3], 9.02. This compound also gave a pEC50 with NIH3T3 of 9.27.

Consider `Cn1cncc1C(OCc1ccc(C#N)cc1/C=C/c1ccccn1)c1ccc(C#N)cc1` (centres undefined), for which, in assay [1], the Selectivity turned out to be 1120. For the same compound, the negative-log IC50 (pIC50) in assay [2] is 5.74; in assay [3], 8.80. In the assay with NIH3T3, this compound had a pEC50 of 7.64.

For `Cn1cncc1C(OCc1ccc(C#N)cc1C#Cc1ccc(C#N)cc1)c1ccc(C#N)cc1` (centres undefined), in assay [1], the Selectivity worked out at 196. Moreover, the pIC50 in assay [2] was 6.91; in assay [3] it was 9.20. Moreover, in the assay on NIH3T3, the pEC50 was 7.94.
